Results published in patent US5922724A, “Benzimidazole compounds and their use as modulators of the GABA a receptor complex” (Neurosearch A/S, priority 1995, dated 1999).

Target: benzodiazepine receptor sites (GABAA receptor complex)
Assay: Displacement of ^3 H-flunitrazepam (^3 H-FNM) binding to rat cerebral cortex membranes
Set-up: species or system male Wistar rats (cerebral cortex)
Conditions: ^3 H-FNM 1 nM, 40 min at 2° C., pH 7.1, non-specific binding with clonazepam 1 μM, read-out: IC50 (concentration of the test substance which inhibits the specific binding of ^3 H-FNM by 50%)
Source text: At present two types of GABA receptors are known, the GABAA and the GABAB receptors. […] Activation of GABA receptors leads to alternations in membrane potential (hyperpolarization). The GABAA receptors are associated with chloride influx through its associated and integrated chloride channel, whereas GABAB receptor activation indirectly alters potassium and calcium channels as well as modifies second messenger production. The GABAA recognition sites can be activated by GABA, muscimol; and isoguvacine for example, but not by GABAB agonists such as for example baclofen. The modulatory GABAA recognition site at the benzodiazepine receptor sites can be selectively radiolabelled with ^3 H-flunitrazepam. The affinity of various potential ligands for the benzodiazepine receptor sites can thus be evaluated by estimating the ability of test compounds to displace ^3 H-flunitrazepam.
Preparations are performed at 0-4° C. unless otherwise indicated. Cerebral cortex from male Wistar rats (150-200 g) is homogenized for 5-10 sec in 20 ml Tris-HCl (30 mM, pH 7.4) using an Ultra-Turrax homogenizer. […]
The membrane preparation is thawed and centrifuged at 2° C. for 10 min at 27,000× g. […] Non-specific binding is determined using clonazepam (1 μM, final concentration). […] The amount of radioactivity on the filters is determined by conventional liquid scintillation counting. […]

## c1cc(-n2ccnc2)cc(-n2cnc3cc(-c4ccoc4)ccc32)c1 [1-(3-(1-Imidazolyl)phenyl)-5-(3-furanyl)benzimidazole]
  IC50: 0.4 nM

## Cc1nccn1-c1cccc(-n2cnc3cc(-c4ccoc4)ccc32)c1 [1-(3-(2-Methylimidazol-1-yl)phenyl)-5-(3-furanyl)benzimidazole]
  IC50: 0.4 nM
